Reference: patent US9604945B2, “Sydnonimines-specific dopamine reuptake inhibitors and their use in treating dopamine related disorders” (priority 2007, dated 2017)

Legend:
[1] = biological target: Norepinephrine Transporter (Human Recombinant) (Homo sapiens (Human), UniProt P23975); assay: Norepinephrine transporter (human recombinant) binding assay, [3H]-Nisoxetine; details: read-out: INH at 10 μM NET
Experimental: II: Norepinephrine Transporter (Human Recombinant) Binding Assay • This assay was carried out in accordance with the procedure described by Raisman, R, et al. Eur. Jrnl. Pharmacol. 78: 345-351 (1982) with modifications. See also, Langer, S., et al., Eur. Jrnl. Pharmacol, 72: 423-4 (1981). Tissue Preparation • 1. hrNET (Receptor Biology; RBNET) is diluted in assay buffer to 2.5 microunits/ml, so that each tube receives 0.5 microunits, or 2 microunits/ml. • NOTE: 100 microassays, add 20 mis of buffer. Binding Reaction • 1. Each tube receives the following components: • 25 ul drug or vehicle • 25 ul [^3H]-Nisoxetine • 200 ul tissue suspension. • 2. Initiate binding reaction with the addition of tissue, and incubate at room temperature for 1 hour. • 3. Terminate binding reaction by rapid filtration of tube contents onto 0.1% PEI treated GF/C filters (TopCount). • 4. Rinse the assay tubes once with ice cold 50 mM NaCl, then rapidly rinse the filters with 6×1 ml/tube of the same wash buffer. • 5. Radioactivity trapped onto the filters is assessed using liquid scintillation spectrophotometer after soaking the filters for at least 1 hour in scintillation cocktail. Materials and Reagents • 1. The receptor source is human recombinant/CHO. • 2. [^3H]-Nisoxetine, diluted to a concentration of 10 nM in assay buffer, is used as the radioligand. Thus, the final ligand concentration is 1 nM. • 3. Non specific binding is defined as that remaining in the presence of 1×10^−6M desipramine (MW=302.8) (Make fresh: in bag with dessicating rocks 1, dissolves in water 1E-3). • 4. The reference compound for the assay is desipramine. Desimpramine is run at following final concentrations: • 1×10^−10, 2×10^−10, 5×10^−10, 1×10^−9, 2×10^−9, 5×10^−9, 1×10^−8, 2×10^−8, 5×10^−8, 1×10^−7, 2×10^−7, 5×10^−7M • 5. The positive control is any of the above run at the final concentrations of: • 1×10^−9, 5×10^−9, 2×10^−8 M. • 6. The Kd for the receptor is 3 nM. Buffers

[2] = test system: mice; assay: Open Field testing; format: in vivo, mouse; details: for Anxiolytic effects in Open Field testing: FIGS. 9A-9D
Experimental: Open Field testing was also performed. In carrying out this testing, individually housed male and female mice aged 8-12 weeks were used. The mice were maintained on a reverse L:D/12 p.m.: 12 a.m. cycle in a barrier facility. Food and water were available ad libitum. Testing occurred towards the end of the light cycle between 6-12 a.m. Mice were acclimated to the testing room for at least 30 minutes. The assay was performed in a custom-made Open Field Apparatus. Each chamber was a 50 by 50 cm square. The experiment was recorded and tracked by a tracking system obtained from Viewpoint.
The time and the path length in the center of the open field were determined. The center of the open field is defined as a 13.5×13.5 cm square in the geometric center of the arena. The percent of path in the center is calculated as
[formula] For each mouse, the total path length and path length for 60 minutes at 5 minute intervals was determined as a measure of locomotor activity. In addition, feces produced by each experimental animal during the test was counted. Each chamber was cleaned between individual mouse testing.
Path length for 60 minutes at 5 minute intervals was analyzed by repeat measures using SPSS software. All other parameters were compared using unpaired t-test (GraphPad Prism).

[3] = Plasma drug concentration by different routes of administration; format: in vivo, C57BL/6 mice; details: for Plasma Concentration: time 0 (pre-dose); for concentration at 5 min / concentration at 15 min / concentration at 30 min / concentration at 60 min / concentration at 120 min / concentration at 240 min / concentration at 480 min: C57BL/6, mouse, plasma
Experimental: The following materials and methods are provided to facilitate the practice of Example 9, in which drug concentration in certain biological samples were assessed using different routes of administration.
Parameters Used in Dosing and Drug Administration of the Compound of Example 3:
Adult C57BL/6 mice (preferred 16 weeks old).
Three mice per time point. If all three routes are conducted in same day, one group of pre-dose is efficient.
In the studies using adult C57BL/6 mice (preferably approximately 16 weeks old), dosing and drug administration parameters for the compound of Example 3 were explored. Clearly, the compound is suitable for oral administration and lasts in the plasma up to 2-3 hours.

Q: Which inhibition at 10 µM [1] does the source give for `Cc1ccc(C[n+]2[cH-]/c(=N\C(=O)Nc3ccccc3)on2)cc1` [Example 3, N-phenylcarbamoyl-3-(p-methyl-benzyl)-sydnonimine] here?
A: 14%

Q: What about the “Locomotor activity in open field testing” value ([2]; 10 and 90 mg/kg, FIG. 8) of the same compound?
A: effective to reduce locomotor activity

Q: And the “Anxiolytic effects in Open Field testing” value ([2]; 10 and 90 mg/kg)?
A: demonstrable anxiolytic effects

Q: What about the “Number of fecal boli in open field testing” value ([2]; mouse, in vivo) of the same compound?
A: no effect

Q: What about the “Plasma Concentration” value ([3]; 10 mg/kg (IP)) of the same compound?
A: 21.00 ng/mL

Q: And the “Plasma Concentration” value ([3]; 10 mg/kg (IV))?
A: 18.33 ng/mL

Q: What about the “Plasma Concentration” value ([3]; 10 mg/kg (PO)) of the same compound?
A: 10.60 ng/mL

Q: What about the “Plasma Concentration” value ([3]; 30 mg/kg (PO)) of the same compound?
A: 8.93 ng/mL

Q: And the concentration at 5 min ([3]; intraperitoneal, 10 mg/kg (IP))?
A: 973 ng/mL

Q: And the concentration at 15 min ([3]; intraperitoneal, 10 mg/kg (IP))?
A: 316 ng/mL

Q: And the concentration at 30 min ([3]; intraperitoneal, 10 mg/kg (IP))?
A: 544 ng/mL

Q: What about the concentration at 60 min ([3]; intraperitoneal, 10 mg/kg (IP)) of the same compound?
A: 115 ng/mL

Q: And the concentration at 120 min ([3]; intraperitoneal, 10 mg/kg (IP))?
A: 82.5 ng/mL

Q: What about the concentration at 240 min ([3]; intraperitoneal, 10 mg/kg (IP)) of the same compound?
A: 34 ng/mL

Q: And the concentration at 480 min ([3]; intraperitoneal, 10 mg/kg (IP))?
A: 31.2 ng/mL

Q: And the concentration at 5 min ([3]; 10 mg/kg (IV))?
A: 2090 ng/mL

Q: What about the concentration at 15 min ([3]; 10 mg/kg (IV)) of the same compound?
A: 2110 ng/mL

Q: And the concentration at 30 min ([3]; 10 mg/kg (IV))?
A: 915 ng/mL

Q: And the concentration at 60 min ([3]; 10 mg/kg (IV))?
A: 417 ng/mL

Q: What about the concentration at 120 min ([3]; 10 mg/kg (IV)) of the same compound?
A: 139 ng/mL

Q: And the concentration at 240 min ([3]; 10 mg/kg (IV))?
A: 47.4 ng/mL

Q: And the concentration at 480 min ([3]; 10 mg/kg (IV))?
A: 94.6 ng/mL

Q: And the concentration at 5 min ([3]; 10 mg/kg (PO))?
A: 218 ng/mL

Q: And the concentration at 15 min ([3]; 10 mg/kg (PO))?
A: 115 ng/mL

Q: What about the concentration at 30 min ([3]; 10 mg/kg (PO)) of the same compound?
A: 59.9 ng/mL

Q: And the concentration at 60 min ([3]; 10 mg/kg (PO))?
A: 21.3 ng/mL

Q: What about the concentration at 120 min ([3]; 10 mg/kg (PO)) of the same compound?
A: 17.6 ng/mL

Q: What about the concentration at 240 min ([3]; 10 mg/kg (PO)) of the same compound?
A: 15.8 ng/mL

Q: And the concentration at 480 min ([3]; 10 mg/kg (PO))?
A: 14.3 ng/mL

Q: And the concentration at 5 min ([3]; 30 mg/kg (PO))?
A: 838 ng/mL

Q: What about the concentration at 15 min ([3]; 30 mg/kg (PO)) of the same compound?
A: 670 ng/mL

Q: What about the concentration at 30 min ([3]; 30 mg/kg (PO)) of the same compound?
A: 375 ng/mL

Q: What about the concentration at 60 min ([3]; 30 mg/kg (PO)) of the same compound?
A: 114 ng/mL

Q: What about the concentration at 120 min ([3]; 30 mg/kg (PO)) of the same compound?
A: 41.9 ng/mL

Q: And the concentration at 240 min ([3]; 30 mg/kg (PO))?
A: 48.5 ng/mL

Q: And the concentration at 480 min ([3]; 30 mg/kg (PO))?
A: 13.4 ng/mL

Q: What about the “Time the compound lasts in the plasma” value ([3]; mouse, in vivo) of the same compound?
A: 2 to 3 h

Q: Which results are given for `O=C(/N=c1\[cH-][n+](CCCc2ccccc2)no1)Nc1ccccc1` [Example 6, N-phenylcarbamoyl-3-(phenylpropyl)-sydnonimine]?
A: inhibition at 10 µM [1]: 1.44%; Anxiolytic effects in Open Field testing ([2]; 10 and 90 mg/kg): induces anxiolytic effects; Oral bioavailability compared to Example 3 ([3]; oral, 10 and 30 mg/kg, FIG. 3): relatively higher oral bioavailability; Bioavailability in the plasma and brain compared to Example 3 ([3]; same dosage, different routes, FIGS. 2A-2D): slightly better bioavailability
